Test results from article PMC10112232, “Comparison of Toxicities among Different Bumped Kinase Inhibitor Analogs for Treatment of Cryptosporidiosis” (Antimicrobial Agents and Chemotherapy, 2023).
Where two headings read alike, the source gives them in different places.

How the values were obtained:
[1] = Mouse locomotor activity box; assay type: in vivo; conditions: mice, 150 mg/kg QD for 5 days; for distance traveled / stereotypic horizontal activity / vertical rearing activity: vs controls
Method: BKIs –1770, -1841, and -1708 were tested in the mouse locomotor activity box to screen for possible neurological issues (Fig. S7). All three BKIs were dosed at 150 mg/kg QD for 5 days.
(§1) Methods for synthesis of BKIs ([17], [23]), efficacy against Nluc expressing C. parvum in infected adult IFN-γ KO mice ([6], [9]), in vivo mouse GI tract tissue exposure by LC/MS-MS analysis ([18], [28]), PK analysis of mouse plasma and brain tissue BKI concentrations by LC/MS-MS analysis ([29]), in vivo rat and dog cardiotoxicity screen ([30]), efficacy against IOWA-II strain C. parvum in infected neonatal calves ([13]), efficacy against C. hominis in infected piglets ([12]), in vitro inhibition of C. parvum CDPK1 (CpCDPK1) and human tyrosine kinase SRC (HsSRC) activity ([31]), in vitro inhibition of hERG ([32]), Nluc expressing C. parvum in vitro growth inhibition in infected HCT-8 cells ([6]), in vitro cytotoxicity in CRL-8155 and HepG2 cells ([29]), and mouse locomotor activity box ([33], [34]) have all been previously described. Analytes were measured by LC/MS-MS on an Acquity ultra performance liquid chromatography (UPLC) system in tandem with a Xevo TQ-S mass spectrometer (Waters, Milford, MA, USA).

[2] = test system: Nluc expressing C. parvum; set-up: method as in PMID 30830766; conditions: IFN-γ KO mice, twice daily (BID) for 5 days; cited from earlier work
C. parvum = experiment: Efficacy in neonatal calves infected with C. parvum; assay type: in vivo
Method: (§2) There were also improvements in the treated calves in both fecal volume and consistency, urine output, weight gain and daily clinical scores compared to control calves (Fig. S3). […] Fecal volume, fecal consistency, and clinical scores were improved for all treatment groups compared to controls, but these improvements were delayed for the 1 mg/kg group.
Total oocyst excretion determined by RT-PCR concentration and total by fecal weight shed per day. (A) Oocyst excretion per day after treatment with BKI-1770. […] (C) Oocyst excretion per day after treatment with BKI-1841. (D) Cumulative total oocyst excretion for days 3 through 10 after treatment with BKI-1841. […] BKI-1841 BID treatments were administered on days 2 through 4 and QD treatments were administered on days 2 through 5. […] QD = once daily, BID = twice daily.
(§3) BKI-1841 was dosed at 5, 2, and 1 mg/kg BID for 3 days and 2 mg/kg QD for 4 days (Fig. 5, Fig. S4). […] Urine output was consistent for all groups, including controls, and fecal volume and consistency were improved for all groups over controls (Fig. S4). […] This occurred to some degree with all dosing regimens, developing with the fewest doses at 5 mg/kg BID. With the lowest dose of 1 mg/kg BID, the onset of dropped pasterns began after the third dose and continued until self-resolving 2 days after dosing concluded. All signs of dropped pasterns were gone by the end of the experiment on day 10 postinfection.
as §1

[3] = Pharmacokinetics in mice (plasma, brain, GI tissues) by LC/MS-MS; assay type: in vivo, mouse; conditions: for Kp: mouse, brain, read-out: brain penetration (brain tissue to plasma area-under-the-curve)
Method: For evaluation of its suitability for in vivo dosing, BKI-1841 was also tested in mice for plasma exposure after a single dose (Fig. 2). […] A dose of 25 mg/kg BKI-1841 was used to evaluate brain penetration over 4 h using the same method (Fig. 2).
as §1

[4] = Multidose mouse toxicity, tibial epiphyseal growth plate; assay type: in vivo; conditions: for gross signs of toxicity / width of the tibia epiphyseal growth plate vs vehicle controls: 3 week old mice, oral 150 mg/kg QD for 7 days; for width of the tibia epiphyseal growth plate vs vehicle controls: n = 3
Method: The recurring presence of toxicity in calves manifesting as dropped pasterns, as well as the observations of bone toxicity in rats, led to the exploration of possible bone toxicity screening in mice to allow for screening prior to dosing in larger animals. To test for effects to the growth plate in developing bones, 3 week old mice were dosed for 7 days QD and euthanized 24 h after the final dose. The right and left tibia were dissected from each mouse and stained with AgNO3 to visualize the growth plate and measurements across the widths compared to vehicle-only treated controls. […] The remaining two mice for this treatment were immediately euthanized and their tibias extracted early on day 4.
Mouse toxicity testing and evaluation of the tibial epiphyseal plate have been previously described ([18], [38]) and were performed with some modifications. Briefly, 3 week old BALB/c mice (n = 3) were dosed orally once daily for 7 days. Mice were euthanized along with vehicle treated controls by cardiac puncture for collection of blood for analysis. Necropsy, obtaining blood for serum chemistries, histology of organs (brain, heart, lungs, spleen, liver, stomach, small intestine, large intestine and kidney), and removal of tibias were performed within 24 h of the final dose. Examination of organ histology included routine H&E and Oil-Red O (lipid)-stained organs from the treated mice and a set of untreated matched controls. Pathological examination was performed by a board certified pathologist who was blinded to the treatment and control group identities. Tibias were removed and immediately placed in dH2O for a minimum of 1 h. Using a fresh number 11 scalpel blade, a quick sagittal cut was made across the femoral condyle opposite the fibula, and a second cut was made across the second femoral condyle separating the fibula and tibia. The tibias were then immersed in acetone for 1 h to dehydrate. Dehydrated tibias were washed in dH2O for 2 min, then soaked in 1.5% AgNO3 for 1 min in a container protected from light. Tibias were then rinsed in dH2O for 2 min and exposed to strong light for 10 sec. Stained tibias were stored in 70% ethanol for >10 min before examining the growth plates at ×40 magnification using an Amscope stereo microscope with a mounted camera. Photos were taken using the Amscope image capture software. A calibration slide was used to establish a μm to pixel ratio of 1:1.184. Using the Measurement Tool, 10 measurements were taken across each epiphyseal plate by orienting the cursor at right angles from the growth plate borders by two different researchers (one set unblinded; one set blinded) and average width was assigned to each tibia from each animal.

[5] = cited from earlier work; for HR / MAP / dP/dt@50: rat
[6] = Plasma concentrations and clinical toxicity signs in treated neonatal calves; assay type: in vivo, calf; conditions: for Cmax: bovine, plasma
Method: as §2, §3

hERG = hERG (Homo sapiens, UniProt Q12809); experiment: In vitro inhibition of hERG; assay type: biochemical
Chain of hERG (Q12809 whole entry): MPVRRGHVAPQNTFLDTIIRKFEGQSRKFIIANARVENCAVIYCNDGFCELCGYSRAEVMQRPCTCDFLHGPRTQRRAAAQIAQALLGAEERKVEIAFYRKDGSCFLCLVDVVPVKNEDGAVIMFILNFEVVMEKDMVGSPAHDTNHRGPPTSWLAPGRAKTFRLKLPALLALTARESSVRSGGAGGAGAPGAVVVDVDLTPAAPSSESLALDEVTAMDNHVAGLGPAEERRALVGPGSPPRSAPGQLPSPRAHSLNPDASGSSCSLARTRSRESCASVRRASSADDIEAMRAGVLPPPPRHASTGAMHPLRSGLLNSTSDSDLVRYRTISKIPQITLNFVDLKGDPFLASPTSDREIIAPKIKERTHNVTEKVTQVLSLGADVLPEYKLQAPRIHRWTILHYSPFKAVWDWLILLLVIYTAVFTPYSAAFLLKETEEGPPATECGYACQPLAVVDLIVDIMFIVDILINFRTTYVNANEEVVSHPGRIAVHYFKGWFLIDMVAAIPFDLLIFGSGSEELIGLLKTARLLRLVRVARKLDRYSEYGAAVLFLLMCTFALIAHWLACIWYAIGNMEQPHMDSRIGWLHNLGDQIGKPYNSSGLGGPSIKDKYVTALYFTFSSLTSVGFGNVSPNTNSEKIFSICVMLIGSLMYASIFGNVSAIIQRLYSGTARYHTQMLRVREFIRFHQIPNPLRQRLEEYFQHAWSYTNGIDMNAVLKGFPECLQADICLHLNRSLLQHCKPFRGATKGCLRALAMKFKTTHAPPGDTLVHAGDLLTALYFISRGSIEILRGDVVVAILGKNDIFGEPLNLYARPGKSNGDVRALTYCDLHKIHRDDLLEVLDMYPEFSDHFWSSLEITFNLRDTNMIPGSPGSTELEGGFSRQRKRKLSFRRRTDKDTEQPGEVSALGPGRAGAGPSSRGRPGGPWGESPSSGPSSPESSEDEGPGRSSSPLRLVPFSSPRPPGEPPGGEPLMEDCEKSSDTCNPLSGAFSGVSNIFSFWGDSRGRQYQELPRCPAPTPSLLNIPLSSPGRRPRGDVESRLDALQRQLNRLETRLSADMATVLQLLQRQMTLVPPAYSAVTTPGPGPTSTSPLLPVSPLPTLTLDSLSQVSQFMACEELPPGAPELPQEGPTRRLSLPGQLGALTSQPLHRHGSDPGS
From the text: as §1

Compound: CCOc1ccc2cc(-c3nn(C(C)(C)CCO)c(N)c3C(N)=O)ccc2c1 [BKI-1770]
- overall effect on locomotor activity [1]: depression in movement
- distance traveled [1]: significant (P < 0.05) decrease in distance traveled from 20 to 60 min
- stereotypic horizontal activity [1]: increased horizontal activity from 0 to 40 min
- vertical rearing activity [1]: decreased vertical activity throughout the study
- minimum efficacious dose [2]: 30 mg/kg
- total oocysts excreted (C. parvum; 5 mg/kg BID for 5 days (n = 5), days 3 to 10 postinfection, control 1.62E10): 2.58E9 oocysts
- minimal efficacious dose (C. parvum; BID): 3 mg/kg
- total oocyst excretion per day vs controls (C. parvum; all dosed groups (5, 3, 2, 1 mg/kg BID for 5 days)): significant differences
- time to depletion in plasma to submicromolar concentrations ([3]; mice, after oral dosing): 1 to 2 h
- ileum tissue concentration ([3]; mice, single 30 mg/kg oral dose, through 12 h): > 1 µM
- Kp ([3]; mice, single 30 mg/kg oral dose): 0.1
- gross signs of toxicity [4]: no gross signs of toxicity
- width of the tibia epiphyseal growth plate vs vehicle controls [4]: significant (P < 0.05) increases
- effects on MAP, HR, left ventricular contractility vs vehicle ([5]; anesthetized rats, 30-minute IV infusions of 3, 10, 30 mg/kg, significant >15%): No significant effects
- HR ([5]; IV 3 mg/kg): 8%
- MAP ([5]; IV 3 mg/kg): -7%
- dP/dt@50 ([5]; IV 3 mg/kg): 0%
- HR ([5]; IV 10 mg/kg): 8%
- MAP ([5]; IV 10 mg/kg): 5%
- dP/dt@50 ([5]; IV 10 mg/kg): 9%
- HR ([5]; IV 30 mg/kg): 3%
- MAP ([5]; IV 30 mg/kg): -7%
- dP/dt@50 ([5]; IV 30 mg/kg): 8%
- signs of cardiotoxicity ([5]; rats): no signs of cardiotoxicity
- hyperflexion of the limbs (dropped pasterns) ([6]; 5 mg/kg BID for 5 days): observed in two of the 5 mg/kg calves
- bloody diarrhea ([6]; 5 mg/kg BID, one calf): some bloody diarrhea
- Cmax ([6]; 3 mg/kg BID, at 4 h post dose 1, read-out: plasma observed Cmax): 3.4 ± 0.06 µM
- Cmax ([6]; 5 mg/kg BID, at 4 h post dose 5, read-out: plasma observed maximum concentration (Cmax)): 10.3 ± 5.4 µM

Compound: CCOc1ccc2cc(-c3nn(C4CCOCC4)c(N)c3C(N)=O)ccc2n1 [BKI-1841]
- IC50 (hERG): > 30 µM
- overall effect on locomotor activity [1]: depression in movement
- distance traveled [1]: significant (P < 0.05) decrease
- stereotypic horizontal activity [1]: significant (P < 0.05) decrease
- vertical rearing activity [1]: significant (P < 0.05) decrease
- total oocyst excretion reduction (C. parvum; 1 mg/kg BID for 3 days): little reduction
- total oocyst excretion per day vs controls (C. parvum; 1 mg/kg group): no significant difference
- total oocyst excretion reduction (C. parvum; 5 mg/kg BID for 3 days and 2 mg/kg BID given for 3 or 4 days): 2 to 4 log
- total oocyst excretion per day vs controls (C. parvum; 5 mg/kg and both 2 mg/kg groups): significant differences
- plasma exposure ([3]; for more than 6 h after a single 25 mg/kg dose in mice): > 1 µM
- signs of toxicity ([3]; mice, single 25 mg/kg dose): no signs of toxicity
- Kp ([3]; mice, single 25 mg/kg oral dose, over 4 h): 0.27
- gross signs of toxicity [4]: no gross signs of toxicity
- width of the tibia epiphyseal growth plate vs vehicle controls [4]: did not show significant increases
- blood chemistry and histology vs control animals ([4]; mice (data not shown)): no abnormalities or indications of toxicity
- predose plasma concentration ([6]; 1 mg/kg BID, last day of treatment): 1.3 ± 0.1 µM
- ataxia ([6]; 5 mg/kg BID, during the 3 days of dosing): signs of ataxia
- hyperflexion of the limbs (dropped pasterns) ([6]; all dosing regimens (5, 2, 1 mg/kg BID 3 days; 2 mg/kg QD 4 days)): all calves dosed with BKI-1841 showed signs of hyperflexion of the limbs seen as dropped pasterns
- safety index ([6]; dropped pasterns at lowest dose tested (1 mg/kg BID)): < 1
